Data taken from patent US4758558A, “N-(substituted)-[7-(2-cyanoacetamido)cephalosporanic]amide derivatives having antibiotic utility” (priority 1982, dated 1988).

How the values were obtained:
[1] = system: Escherichia coli; test: Effect on intestinal bacteria: number of Escherichia coli in feces; format: in vivo, ICR mice; conditions: after oral administration for 2 days, 500 mg/kg/day, female ICR mice; before: 6.4
Experimental: (b) Effect on the intestinal bacterial colonies:
[…] Each portion of the two kinds of the feces was cultured at 25° C. or 37° C. in a variety of culture medium for one to five days to see the state of Escherichia coli, Pseudomonas aeruginosa, a Streptococcus species, a Lactobacillus species, Lactobacillus bifidus and a Bacteroides species in the culture medium.
(§1) Effects of the present compound on intestinal bacteria
Each of the two fecal […] by weight of an anaerobic diluent (a phosphoric acid buffer solution) and was ground in a mortar, and 0.1 ml of the thus ground material was smeared on each of the following culture media for the following bacteria, and the thus inoculated culture media were incubated under the following conditions. Thereafter, the number of the following bacteria in each of the thus cultured media was determined.

[2] = system: Pseudomonas aeruginosa; test: Effect on intestinal bacteria: number of Pseudomonas aeruginosa in feces; format: in vivo, ICR mice; conditions: mouse, in vivo, po, 500 mg/kg/day
Experimental: as §1
(§2) Each of the present compounds respectively produced in Examples 1 to 18 was orally administered continuously for 2 days at a daily dose rate of 500 mg/kg body weight to each of five female ICR mice of each group after 6 weeks of their birth.
(§3) Each of the two fecal specimens respectively collected from each mouse before and after one day of the administration was diluted with 100 times by weight of an anaerobic diluent (a phosphoric acid buffer solution) and was ground in a mortar, and 0.1 ml of the thus ground material was smeared on each of the following culture media for the following bacteria, and the thus inoculated culture media were incubated under the following conditions. Thereafter, the number of the following bacteria in each of the thus cultured media was determined.
NAC agar 37° C., one day, […]

[3] = system: a species of Streptococcus; test: Effect on intestinal bacteria: number of a sp. of Streptococcus in feces; format: in vivo, ICR mice; conditions: mouse, in vivo, po, 500 mg/kg/day
Experimental: (§4) (b) Effect on the intestinal bacterial colonies: […]
as §1, §2, §3
a species of Streptococcus
TATAC agar 37° C., one day, […]

[4] = system: a species of Lactobacillus; test: Effect on intestinal bacteria: number of a sp. of Lactobacillus in feces; format: in vivo, ICR mice; conditions: mouse, in vivo, po, 500 mg/kg/day
Experimental: as §4, §1, §2, §3
a species of Lactobacillus
LBS agar 37° C., 5 days, […]

[5] = system: Lactobacillus bifidus; test: Effect on intestinal bacteria: number of Lactobacillus bifidus in feces; format: in vivo, ICR mice; conditions: mouse, in vivo, po, 500 mg/kg/day
Experimental: as §4, §1, §2, §3
BS agar 37° C., 5 days, […]

[6] = system: a species of Bacteroides; test: Effect on intestinal bacteria: number of a sp. of Bacteroides in feces; format: in vivo, ICR mice; conditions: mouse, in vivo, po, 500 mg/kg/day
Experimental: as §4, §1, §2, §3
a species of Bacteroides
NBGT agar 37° C., 5 days, […]

[7] = system: Escherichia coli IFO 12734; test: Antibacterial activity in vitro (MIC) against Escherichia coli; format: cell-based; conditions: IFO12734, Mueller-Hinton agar, 18 to 24 hours, 37° C., read-out: MIC (minimum growth inhibiting concentration) against Escherichia coli
Experimental: (§5) (c) Anti-bacterial activity (in vitro):
(§6) Minimum concentration of the present compound inhibiting the growth of the following bacteria was determined according to the standard procedures of Japan Society of Chemotherapy:
Escherichia coli IFO 12734 and
(§7) Determination of the antibacterial activity of the present compound produced in Examples 1 to 18, respectively was carried out according to the standard procedures of Japan Society of Chemotherapy for finding MIC (the minimum concentration of a specimen to inhibit the growth of a species of bacteria).
(§8) A series of diluted solutions of each of the present compound were mixed with 9 times by weight of Mueller-Hinton's culture medium as the culture medium for determining the sensitivity of a bacterial species, and flat agar culture plates were prepared by using the thus obtained mixture.
(§9) Each of the liquids respectively containing one of the bacterial species shown in Table 2 was smeared onto each of the thus prepared flat agar culture plates with a platinum loop, in length of about 2 cm, and the thus treated plates were incubated for 18 to 24 hours at 37° C. Thereafter, by observing the growth state of each bacterial species on the cultured plates, the minimum concentration of each compound completely inhibiting the growth of each bacterial species was found.

[8] = system: Staphylococcus aureus IAM 1011; test: Antibacterial activity in vitro (MIC) against Staphylococcus aureus; format: cell-based; conditions: IAM1011, Mueller-Hinton agar, 18 to 24 hours, 37° C., read-out: MIC (minimum growth inhibiting concentration) against Staphylococcus aureus
Experimental: as §5, §6
Staphylococcus aureus IAM 1011
as §7, §8, §9

| Compound | Number of Escherichia coli after the administration [1] | Number of Pseudomonas aeruginosa after the administration [2] | Number of a sp. of Streptococcus after the administration [3] | Number of a sp. of Lactobacillus after the administration [4] | Number of Lactobacillus bifidus after the administration [5] | Number of a sp. of Bacterioides after the administration [6] | MIC [7] | MIC [8] |
| --- | --- | --- | --- | --- | --- | --- | --- | --- |
| COC(=O)Cc1ccc(NC(=O)C2=C(COC(C)=O)CSC3C(NC(=O)CC#N)C(=O)N23)cc1 (stereo not drawn) [Example 8, N-(4-carbomethoxymethylphenyl)-7-[(2-cyanoacetamido)cephalosporanic]amide] | 6.6 Log10 (number of bacteria/g feces) | < 3.0 Log10 (number of bacteria/g feces) | 6.6 Log10 (number of bacteria/g feces) | 9.1 Log10 (number of bacteria/g feces) | 8.4 Log10 (number of bacteria/g feces) | 8.9 Log10 (number of bacteria/g feces) | ≥ 100 µg/mL | ≥ 100 µg/mL |
| COC(=O)CNC(=O)c1ccc(NC(=O)C2=C(COC(C)=O)CSC3C(NC(=O)CC#N)C(=O)N23)cc1 (stereo not drawn) [Example 9, N-(4-carbomethoxymethylcarbamoylphenyl)-[7-(2-cyanoacetamido)cephalosporanic]amide] | 6.5 Log10 (number of bacteria/g feces) | < 3.0 Log10 (number of bacteria/g feces) | 6.7 Log10 (number of bacteria/g feces) | 8.9 Log10 (number of bacteria/g feces) | 8.4 Log10 (number of bacteria/g feces) | 8.5 Log10 (number of bacteria/g feces) | ≥ 100 µg/mL | ≥ 100 µg/mL |
| CC(=O)OCC1=C(C(=O)Nc2ccc(C(N)=O)cn2)N2C(=O)C(NC(=O)CC#N)C2SC1 (stereo not drawn) [Example 11, N-(nicotinic amido)-[7-(2-cyanoacetamido)cephalosporanic]amide] | 6.8 Log10 (number of bacteria/g feces) | < 3.0 Log10 (number of bacteria/g feces) | 6.7 Log10 (number of bacteria/g feces) | 9.1 Log10 (number of bacteria/g feces) | 8.2 Log10 (number of bacteria/g feces) | 8.6 Log10 (number of bacteria/g feces) | ≥ 100 µg/mL | ≥ 100 µg/mL |
| Cc1nnc(SCC2=C(C(=O)Nc3ccc(C(=O)O)cc3)N3C(=O)C(NC(=O)Cn4cnnn4)C3SC2)s1 (stereo not drawn) [Example 12, N-(4-carboxyphenyl)-{7-(1-1H-tetrazolylacetamido)-3-[2-(5-methyl-1,3,4-thiadiaziolyl)thiomethyl]-3-cephem-4-carboxylic}amide] | 6.5 Log10 (number of bacteria/g feces) | < 3.0 Log10 (number of bacteria/g feces) | 6.7 Log10 (number of bacteria/g feces) | 8.9 Log10 (number of bacteria/g feces) | 8.2 Log10 (number of bacteria/g feces) | 8.8 Log10 (number of bacteria/g feces) | ≥ 25 µg/mL | ≥ 1.56 µg/mL |
| COC(=O)Cc1ccc(NC(=O)C2=C(CSc3nnc(C)s3)CSC3C(NC(=O)Cn4cnnn4)C(=O)N23)cc1 (stereo not drawn) [Example 14, N-(4-carbomethoxymethylphenyl)-{7-(1-1H-tetrazolylacetamido)-3-[2-(5-methyl-1,3,4-thiadiazolyl)thiomethyl]-3-cephem-4-carboxylic}amide] | 6.4 Log10 (number of bacteria/g feces) | < 3.0 Log10 (number of bacteria/g feces) | 6.6 Log10 (number of bacteria/g feces) | 9.0 Log10 (number of bacteria/g feces) | 8.2 Log10 (number of bacteria/g feces) | 8.4 Log10 (number of bacteria/g feces) | ≥ 100 µg/mL | ≥ 12.5 µg/mL |
| COC(=O)CNC(=O)c1ccc(NC(=O)C2=C(CSc3nnc(C)s3)CSC3C(NC(=O)Cn4cnnn4)C(=O)N23)cc1 (stereo not drawn) [Example 15, N-(4-carbomethoxymethylcarbamoylphenyl)-{7-(1-1H-tetrazolylacetamido)-3-[2-(5-methyl-1,3,4-thiadiazolyl)thiomethyl]-3-cephem-4-carboxylic}amide] | 6.5 Log10 (number of bacteria/g feces) | < 3.0 Log10 (number of bacteria/g feces) | 6.8 Log10 (number of bacteria/g feces) | 9.1 Log10 (number of bacteria/g feces) | 8.2 Log10 (number of bacteria/g feces) | 8.2 Log10 (number of bacteria/g feces) | ≥ 100 µg/mL | ≥ 12.5 µg/mL |
| Cc1ccc(NC(=O)C2=C(CSc3nnc(C)s3)CSC3C(NC(=O)Cn4cnnn4)C(=O)N23)cc1 (stereo not drawn) [Example 16, N-(4-methylphenyl)-{7-(1-1H-tetrazolylacetamido)-3-[2-(5-methyl-1,3,4-thiadiazolyl)thiomethyl]-3-cephem-4-carboxylic}amide] | 6.5 Log10 (number of bacteria/g feces) | < 3.0 Log10 (number of bacteria/g feces) | 6.5 Log10 (number of bacteria/g feces) | 9.2 Log10 (number of bacteria/g feces) | 8.3 Log10 (number of bacteria/g feces) | 8.1 Log10 (number of bacteria/g feces) | ≥ 100 µg/mL | ≥ 12.5 µg/mL |
| Cc1nnc(SCC2=C(C(=O)NCCc3ccc(O)cc3)N3C(=O)C(NC(=O)Cn4cnnn4)C3SC2)s1 (stereo not drawn) [Example 17, N-[beta-(4-hydroxyphenyl)ethyl]-{7-(1-1H-tetrazolylacetamido)-3-[2-(5-methyl-1,3,4-thiadiazolyl)thiomethyl]-3-cephem-4-carboxylic}amide] | 6.4 Log10 (number of bacteria/g feces) | < 3.0 Log10 (number of bacteria/g feces) | 6.9 Log10 (number of bacteria/g feces) | 9.0 Log10 (number of bacteria/g feces) | 8.4 Log10 (number of bacteria/g feces) | 8.1 Log10 (number of bacteria/g feces) | ≥ 3.12 µg/mL | ≥ 0.78 µg/mL |
| Cc1nnc(SCC2=C(C(=O)Nc3ccc(C(N)=O)cn3)N3C(=O)C(NC(=O)Cn4cnnn4)C3SC2)s1 (stereo not drawn) [Example 18, N-(6-nicotinic amide)-{7-(1-1h-tetrazolylacetamido)-3-[2-(5-methyl-1,3,4-thiadiazolyl)thiomethyl]-3-cepehem-4-carboxylic}amide] | 6.4 Log10 (number of bacteria/g feces) | < 3.0 Log10 (number of bacteria/g feces) | 6.9 Log10 (number of bacteria/g feces) | 9.0 Log10 (number of bacteria/g feces) | 8.4 Log10 (number of bacteria/g feces) | 8.1 Log10 (number of bacteria/g feces) | ≥ 100 µg/mL | ≥ 12.5 µg/mL |
